Laboratory results from US11572590B2, “Methods for evaluating tumor cell spheroids using 3D microfluidic cell culture device” (Dana-Farber Cancer Institute, Inc., priority 2017, dated 2023).
Like-named read-outs stand apart in the source and are kept apart here.

What was measured:
Assay in all cases: SelectScreen Kinase Profiling, single point inhibition and IC50 for off-target kinases
Format in all cases: biochemical
off-target kinases [1] = target: T1, off-target kinases (Homo sapiens, UniProt Q8WTQ7); conditions: GRK7, ZLYTE, ATP Km app
T1 sequence (Q8WTQ7 1-553): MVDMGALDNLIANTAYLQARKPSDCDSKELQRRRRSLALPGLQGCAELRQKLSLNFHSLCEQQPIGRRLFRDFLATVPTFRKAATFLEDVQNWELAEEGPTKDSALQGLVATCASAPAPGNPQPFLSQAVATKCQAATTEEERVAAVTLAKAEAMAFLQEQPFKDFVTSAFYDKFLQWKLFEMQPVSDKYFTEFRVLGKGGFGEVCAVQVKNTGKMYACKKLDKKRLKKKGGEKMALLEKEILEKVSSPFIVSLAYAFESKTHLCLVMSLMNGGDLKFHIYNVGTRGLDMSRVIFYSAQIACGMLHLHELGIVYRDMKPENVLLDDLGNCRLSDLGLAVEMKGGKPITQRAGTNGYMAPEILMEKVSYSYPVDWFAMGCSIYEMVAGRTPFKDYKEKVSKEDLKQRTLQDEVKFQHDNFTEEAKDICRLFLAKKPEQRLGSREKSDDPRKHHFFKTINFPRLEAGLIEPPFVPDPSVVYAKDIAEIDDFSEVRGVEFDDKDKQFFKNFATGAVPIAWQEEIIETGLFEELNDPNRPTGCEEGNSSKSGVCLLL

off-target kinases [2] = target: off-target kinases (Homo sapiens, UniProt P27037); conditions: ACVR2A, LanthaScreen Binding
off-target kinases (Homo sapiens, UniProt P27037), sequence (P27037 20-513): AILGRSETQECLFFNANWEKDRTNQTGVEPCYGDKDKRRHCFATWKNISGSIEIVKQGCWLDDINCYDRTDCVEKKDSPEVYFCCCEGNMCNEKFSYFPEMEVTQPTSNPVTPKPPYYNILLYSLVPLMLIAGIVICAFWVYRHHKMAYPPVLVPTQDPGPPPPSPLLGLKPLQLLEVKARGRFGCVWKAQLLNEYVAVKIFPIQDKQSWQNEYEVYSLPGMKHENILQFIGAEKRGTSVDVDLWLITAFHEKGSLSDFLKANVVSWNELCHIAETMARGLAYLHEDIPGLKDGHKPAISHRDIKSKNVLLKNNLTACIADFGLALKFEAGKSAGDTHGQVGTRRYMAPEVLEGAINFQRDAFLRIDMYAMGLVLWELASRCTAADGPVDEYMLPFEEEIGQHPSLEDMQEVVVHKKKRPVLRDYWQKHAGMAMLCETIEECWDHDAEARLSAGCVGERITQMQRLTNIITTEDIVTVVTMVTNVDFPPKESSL

off-target kinases [3] = target: off-target kinases (Homo sapiens, UniProt Q9Y3S1); conditions: WNK2, LanthaScreen Binding
off-target kinases [4] = target: off-target kinases (Homo sapiens, UniProt P36888, D835Y); conditions: FLT3 D835Y, ATP Km app, ZLYTE
off-target kinases [5] = target: off-target kinases (Homo sapiens, UniProt Q5S007); conditions: ATP Km app, Adapta
off-target kinases (Homo sapiens, UniProt Q5S007), sequence (Q5S007 whole entry): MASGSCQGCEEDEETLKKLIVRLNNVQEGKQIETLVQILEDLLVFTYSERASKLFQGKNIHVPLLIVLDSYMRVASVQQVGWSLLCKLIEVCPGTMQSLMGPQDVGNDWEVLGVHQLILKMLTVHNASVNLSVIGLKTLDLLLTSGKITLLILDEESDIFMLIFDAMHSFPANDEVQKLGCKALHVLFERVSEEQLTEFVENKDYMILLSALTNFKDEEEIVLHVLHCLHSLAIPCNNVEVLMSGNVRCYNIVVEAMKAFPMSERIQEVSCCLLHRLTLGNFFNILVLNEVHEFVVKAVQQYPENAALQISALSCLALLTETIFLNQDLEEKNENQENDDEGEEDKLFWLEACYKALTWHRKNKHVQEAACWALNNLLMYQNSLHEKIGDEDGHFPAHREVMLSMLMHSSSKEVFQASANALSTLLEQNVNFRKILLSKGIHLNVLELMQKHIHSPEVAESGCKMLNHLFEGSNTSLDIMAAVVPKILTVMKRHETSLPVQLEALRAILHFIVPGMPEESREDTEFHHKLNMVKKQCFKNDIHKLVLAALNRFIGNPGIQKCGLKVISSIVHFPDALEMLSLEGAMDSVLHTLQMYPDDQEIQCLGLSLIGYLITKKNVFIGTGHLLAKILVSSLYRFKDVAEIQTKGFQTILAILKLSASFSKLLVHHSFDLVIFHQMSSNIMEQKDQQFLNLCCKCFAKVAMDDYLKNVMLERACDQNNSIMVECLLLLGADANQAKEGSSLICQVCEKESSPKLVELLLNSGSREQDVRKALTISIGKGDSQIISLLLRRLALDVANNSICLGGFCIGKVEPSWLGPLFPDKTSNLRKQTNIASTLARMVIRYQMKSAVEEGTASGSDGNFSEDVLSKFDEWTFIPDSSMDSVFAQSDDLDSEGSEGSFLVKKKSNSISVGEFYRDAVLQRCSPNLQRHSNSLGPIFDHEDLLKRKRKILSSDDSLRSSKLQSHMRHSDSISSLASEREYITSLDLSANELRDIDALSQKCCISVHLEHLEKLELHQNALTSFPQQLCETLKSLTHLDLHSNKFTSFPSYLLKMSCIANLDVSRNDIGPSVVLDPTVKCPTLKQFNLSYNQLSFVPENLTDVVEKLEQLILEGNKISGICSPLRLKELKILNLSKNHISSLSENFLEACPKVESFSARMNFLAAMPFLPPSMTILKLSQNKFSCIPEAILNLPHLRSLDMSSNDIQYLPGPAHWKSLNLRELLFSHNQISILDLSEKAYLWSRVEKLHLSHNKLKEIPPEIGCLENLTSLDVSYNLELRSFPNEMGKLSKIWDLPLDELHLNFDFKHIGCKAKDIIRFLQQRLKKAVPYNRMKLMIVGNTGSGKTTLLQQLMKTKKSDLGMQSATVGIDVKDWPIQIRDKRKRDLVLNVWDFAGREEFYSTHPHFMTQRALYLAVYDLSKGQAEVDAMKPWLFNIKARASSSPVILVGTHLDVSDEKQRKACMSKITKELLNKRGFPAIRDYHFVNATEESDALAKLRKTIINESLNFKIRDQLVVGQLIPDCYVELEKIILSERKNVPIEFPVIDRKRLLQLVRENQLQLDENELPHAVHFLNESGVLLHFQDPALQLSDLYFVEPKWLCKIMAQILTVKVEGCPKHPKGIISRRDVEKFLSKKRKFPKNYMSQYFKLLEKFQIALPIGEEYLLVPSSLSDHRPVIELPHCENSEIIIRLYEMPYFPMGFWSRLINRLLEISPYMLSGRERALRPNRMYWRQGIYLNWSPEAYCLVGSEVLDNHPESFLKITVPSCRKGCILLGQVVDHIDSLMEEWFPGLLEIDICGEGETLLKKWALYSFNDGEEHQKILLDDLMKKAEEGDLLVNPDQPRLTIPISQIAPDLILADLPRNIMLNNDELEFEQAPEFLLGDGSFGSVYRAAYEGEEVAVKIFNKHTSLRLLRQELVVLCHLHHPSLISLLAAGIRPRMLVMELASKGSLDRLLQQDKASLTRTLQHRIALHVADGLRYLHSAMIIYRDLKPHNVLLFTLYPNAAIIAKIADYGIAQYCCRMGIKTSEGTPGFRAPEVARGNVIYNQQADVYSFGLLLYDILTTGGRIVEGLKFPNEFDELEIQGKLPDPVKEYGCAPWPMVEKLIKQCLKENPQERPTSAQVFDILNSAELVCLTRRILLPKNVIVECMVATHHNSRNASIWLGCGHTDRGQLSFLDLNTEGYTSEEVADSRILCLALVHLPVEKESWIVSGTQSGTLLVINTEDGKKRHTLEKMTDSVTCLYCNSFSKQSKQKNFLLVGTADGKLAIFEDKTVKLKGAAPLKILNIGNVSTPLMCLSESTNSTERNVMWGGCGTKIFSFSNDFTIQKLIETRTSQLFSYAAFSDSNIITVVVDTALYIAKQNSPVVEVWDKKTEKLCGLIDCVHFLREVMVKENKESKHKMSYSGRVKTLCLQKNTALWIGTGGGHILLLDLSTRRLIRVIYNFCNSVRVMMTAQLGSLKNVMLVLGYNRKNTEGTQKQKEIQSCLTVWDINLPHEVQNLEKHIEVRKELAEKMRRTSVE

off-target kinases [6] = target: off-target kinases (Homo sapiens, UniProt P22694); conditions: PRKACB (PRKAC beta), LanthaScreen Binding
off-target kinases [7] = target: T2, off-target kinases (Homo sapiens, UniProt P41743); conditions: PRKCI (PKC iota), ZLYTE, ATP Km app
T2 sequence (P41743 1-596): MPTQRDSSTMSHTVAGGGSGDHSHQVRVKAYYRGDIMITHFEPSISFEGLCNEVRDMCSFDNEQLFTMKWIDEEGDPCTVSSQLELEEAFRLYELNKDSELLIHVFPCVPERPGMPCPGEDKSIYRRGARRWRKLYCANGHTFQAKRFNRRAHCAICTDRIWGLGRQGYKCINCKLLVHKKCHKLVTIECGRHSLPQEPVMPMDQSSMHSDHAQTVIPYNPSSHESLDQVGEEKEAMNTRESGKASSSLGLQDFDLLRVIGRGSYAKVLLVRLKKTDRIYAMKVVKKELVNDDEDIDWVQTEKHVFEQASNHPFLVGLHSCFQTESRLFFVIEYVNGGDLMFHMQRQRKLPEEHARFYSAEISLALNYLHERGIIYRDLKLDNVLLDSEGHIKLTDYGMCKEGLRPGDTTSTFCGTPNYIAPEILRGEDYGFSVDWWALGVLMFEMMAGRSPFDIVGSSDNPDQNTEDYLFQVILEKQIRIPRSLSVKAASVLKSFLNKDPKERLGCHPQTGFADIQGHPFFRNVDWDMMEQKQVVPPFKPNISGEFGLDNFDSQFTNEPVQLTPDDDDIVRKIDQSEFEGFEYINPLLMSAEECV

Structure (SMILES): N#Cc1cc(-c2ncnc(Nc3ccc(N4CCN(C5COC5)CC4)cc3)n2)ccc1OC1CCOCC1 [Compound 1, 5-(4-((4-(4-(oxetan-3-yl)piperazin-1-yl)phenyl)amino)-1,3,5-triazin-2-yl)-2-((tetrahydro-2H-pyran-4-yl)oxy)benzonitrile]
- inhibition (off-target kinases [1]; read-out: % Inhibition 1): 3%
- inhibition (off-target kinases [1]; read-out: % Inhibition 2): 5%
- inhibition (off-target kinases [1]; read-out: % Inhibition Avg): 4%
- inhibition (off-target kinases [2]; read-out: % Inhibition 1): 23%
- inhibition (off-target kinases [2]; read-out: % Inhibition 2): 21%
- inhibition (off-target kinases [2]; read-out: % Inhibition Avg): 22%
- inhibition (off-target kinases [3]; read-out: % Inhibition 1): -4%
- inhibition (off-target kinases [3]; read-out: % Inhibition 2): 5%
- inhibition (off-target kinases [3]; read-out: % Inhibition Avg): 1%
- inhibition (off-target kinases [4]; read-out: % Inhibition 1): 83%
- inhibition (off-target kinases [4]; read-out: % Inhibition 2): 81%
- inhibition (off-target kinases [4]; read-out: % Inhibition Avg): 82%
- inhibition (off-target kinases [5]; LRRK2, read-out: % Inhibition 1): 99%
- inhibition (off-target kinases [5]; LRRK2, read-out: % Inhibition 2): 100%
- inhibition (off-target kinases [5]; LRRK2, read-out: % Inhibition Avg): 100%
- inhibition (off-target kinases [5]; LRRK2 FL, read-out: % Inhibition 1): 98%
- inhibition (off-target kinases [5]; LRRK2 FL, read-out: % Inhibition 2): 98%
- inhibition (off-target kinases [5]; LRRK2 FL, read-out: % Inhibition Avg): 98%
- inhibition (off-target kinases [6]; read-out: % Inhibition 1): 16%
- inhibition (off-target kinases [6]; read-out: % Inhibition 2): 18%
- inhibition (off-target kinases [6]; read-out: % Inhibition Avg): 17%
- inhibition (off-target kinases [7]; read-out: % Inhibition 1): 5%
- inhibition (off-target kinases [7]; read-out: % Inhibition 2): 7%
- inhibition (off-target kinases [7]; read-out: % Inhibition Avg): 6%
